{
  "source": "patent US20110280939A1",
  "about": "(EVEREST PHARM. INDUSTRIAL CO., LTD., priority 2007, published 2011)",
  "assay": "average excretion half time in human body",
  "note": "Counter-ions that a name gives are not always drawn.",
  "data": [
    {"smiles": "CN[C@@H](C)[C@@H](O)c1ccccc1", "note": "[pseudoephedrine hydrochloride]", "values": [
      {"measurement": "average excretion half time", "value": "4.76 ± 0.44", "unit": "h"}
    ]}
  ]
}
